According to PubChem BioAssay AID256 (DTP/NCI, 2004):
“And” between values parts separate entries of the source, which are not always exact repeats. Identical values can stand only once. Inconclusive results and toxic doses are left out. How the source made its calls: active means survival T/C of 150% or more; inactive means T/C below 125% in these data.

Test system: CD2F1 mice, L1210 leukemia ip, survival T/C
Assay: NCI In Vivo Anticancer Drug Screen. Data for tumor model L1210 Leukemia (intraperitoneal) in CD2F1 (CDF1) mice
Conditions: higher = longer survival
Procedure, shortened: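 Antitumor effect is scored in animals hosting a serially transplanted tumor. Values compare compound-dosed animals against vehicle-only controls as a simple quotient.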

[1] = endpoint: mean survival time, dose: 100.0 mg/kg/injection, schedule: Q04DX003 (ip), vehicle: saline with Tween-80
[2] = endpoint: mean survival time, dose: 200.0 mg/kg/injection, schedule: Q04DX003 (ip), vehicle: saline with Tween-80
[3] = endpoint: mean survival time, dose: 400.0 mg/kg/injection, schedule: Q04DX003 (ip), vehicle: saline with Tween-80
[4] = endpoint: mean survival time, dose: 100.0 mg/kg/injection, schedule: Q01DX009 (ip), vehicle: saline with Tween-80
[5] = endpoint: mean survival time, dose: 200.0 mg/kg/injection, schedule: Q01DX009 (ip), vehicle: saline with Tween-80
[6] = endpoint: mean survival time, dose: 400.0 mg/kg/injection, schedule: Q01DX009 (ip), vehicle: saline with Tween-80
[7] = endpoint: mean survival time, dose: 100.0 mg/kg/injection, schedule: Q04DX002 (ip), vehicle: saline with Tween-80
[8] = endpoint: mean survival time, dose: 200.0 mg/kg/injection, schedule: Q04DX002 (ip), vehicle: saline with Tween-80
[9] = endpoint: mean survival time, dose: 50.0 mg/kg/injection, schedule: Q01DX009 (ip), vehicle: saline with Tween-80
[10] = endpoint: mean survival time, dose: 100.0 mg/kg/injection, schedule: Q01DX009 (ip), vehicle: saline
[11] = endpoint: mean survival time, dose: 200.0 mg/kg/injection, schedule: Q01DX009 (ip), vehicle: saline
[12] = endpoint: mean survival time, dose: 400.0 mg/kg/injection, schedule: Q01DX009 (ip), vehicle: saline

Measured: T/C

CC1(C)CCC2(C)CCC3(C)C(=CCC4C5(C)CCC(O)C(C)(C)C5CCC43C)C2C1 (stereo not given)
inactive: [1] 98 % of control | [2] 90 % of control | [3] 91 % of control

COc1ccc(C=C(C(=O)CCN(C)C)C(=O)CCN(C)C)cc1
inactive: endpoint: median survival time, dose: 25.0 mg/kg/injection, schedule: Q01DX005 (ip), vehicle: saline 100 % of control | endpoint: median survival time, dose: 50.0 mg/kg/injection, schedule: Q01DX005 (ip), vehicle: saline 100 % of control | endpoint: median survival time, dose: 100.0 mg/kg/injection, schedule: Q01DX005 (ip), vehicle: saline 100 % of control | endpoint: median survival time, dose: 200.0 mg/kg/injection, schedule: Q01DX005 (ip), vehicle: saline 102 % of control

O=C1CC2CCN(C(=O)c3ccccc3)C(Cc3c[nH]c4ccccc34)C2O1 (stereo not given)
inactive: endpoint: mean survival time, dose: 100.0 mg/kg/injection, schedule: Q01DX001 (ip), vehicle: saline 105 % of control | endpoint: mean survival time, dose: 200.0 mg/kg/injection, schedule: Q01DX001 (ip), vehicle: saline 94 % of control | endpoint: mean survival time, dose: 400.0 mg/kg/injection, schedule: Q01DX001 (ip), vehicle: saline 93 % of control

Cc1ccc(S(=O)(=O)OCCCCCCCCCCOS(=O)(=O)c2ccc(C)cc2)cc1
inactive: [4] 91 % of control | [1] 91 % of control | [5] 92 % of control | [2] 97 % of control | [6] 91 % of control | [3] 94 % of control

CCCCCCCCCCC(C)c1ccc(S(=O)(=O)O)cc1 (stereo not given)
inactive: endpoint: mean survival time, dose: 50.0 mg/kg/injection, schedule: Q01DX009 (ip), vehicle: saline sonified 97 % of control | endpoint: mean survival time, dose: 100.0 mg/kg/injection, schedule: Q01DX009 (ip), vehicle: saline sonified 97 % of control | endpoint: mean survival time, dose: 200.0 mg/kg/injection, schedule: Q01DX009 (ip), vehicle: saline sonified 102 % of control

C=CCCCCC(=O)c1ccccc1
inactive: endpoint: mean survival time, dose: 50.0 mg/kg/injection, schedule: Q04DX002 (ip), vehicle: saline with Tween-80 100 % of control | [7] 93 % of control | [8] 104 % of control

O=S(=O)(Nc1ccc2ccccc2c1)c1ccccc1
inactive: [4] 98 % of control | endpoint: mean survival time, dose: 100.0 mg/kg/injection, schedule: Q04DX003 (ip), vehicle: saline 104 % of control | [5] 98 % of control | endpoint: mean survival time, dose: 200.0 mg/kg/injection, schedule: Q04DX003 (ip), vehicle: saline 101 % of control | [6] 98 % of control | endpoint: mean survival time, dose: 400.0 mg/kg/injection, schedule: Q04DX003 (ip), vehicle: saline 96 % of control

CC(=O)OCC1OC(n2cc(CBr)nn2)C(OC(C)=O)C(OC(C)=O)C1OC(C)=O (stereo not given)
inactive: endpoint: mean survival time, dose: 3.12 mg/kg/injection, schedule: Q01DX009 (ip), vehicle: saline with Tween-80 94 % of control and 96 % of control | endpoint: mean survival time, dose: 6.25 mg/kg/injection, schedule: Q01DX009 (ip), vehicle: saline with Tween-80 98 % of control and 102 % of control | endpoint: mean survival time, dose: 6.25 mg/kg/injection, schedule: Q01DX009 (ip), vehicle: suspension in saline 101 % of control | endpoint: mean survival time, dose: 6.25 mg/kg/injection, schedule: Q04DX003 (ip), vehicle: suspension in saline 100 % of control | endpoint: mean survival time, dose: 7.5 mg/kg/injection, schedule: Q01DX009 (ip), vehicle: saline 98 % of control | endpoint: mean survival time, dose: 12.5 mg/kg/injection, schedule: Q01DX009 (ip), vehicle: saline with Tween-80 94 % of control and 104 % of control | endpoint: mean survival time, dose: 12.5 mg/kg/injection, schedule: Q01DX009 (ip), vehicle: suspension in saline 102 % of control | endpoint: mean survival time, dose: 12.5 mg/kg/injection, schedule: Q04DX003 (ip), vehicle: suspension in saline 107 % of control | endpoint: mean survival time, dose: 15.0 mg/kg/injection, schedule: Q01DX009 (ip), vehicle: saline 100 % of control | endpoint: mean survival time, dose: 25.0 mg/kg/injection, schedule: Q01DX009 (ip), vehicle: saline with Tween-80 102 % of control and 108 % of control | endpoint: mean survival time, dose: 25.0 mg/kg/injection, schedule: Q01DX009 (ip), vehicle: suspension in saline 101 % of control | endpoint: mean survival time, dose: 25.0 mg/kg/injection, schedule: Q04DX003 (ip), vehicle: suspension in saline 100 % of control | endpoint: mean survival time, dose: 30.0 mg/kg/injection, schedule: Q01DX009 (ip), vehicle: saline 98 % of control | [9] 95 % of control and 102 % of control | endpoint: mean survival time, dose: 50.0 mg/kg/injection, schedule: Q01DX009 (ip), vehicle: suspension in saline 96 % of control | endpoint: mean survival time, dose: 50.0 mg/kg/injection, schedule: Q04DX003 (ip), vehicle: suspension in saline 103 % of control | endpoint: mean survival time, dose: 60.0 mg/kg/injection, schedule: Q01DX009 (ip), vehicle: saline 102 % of control | [4] 102 % of control

CCOC(=O)c1cc(C=O)nc2c(Cl)cc(Cl)cc12
inactive: [1] 96 % of control | [3] 98 % of control

CC(C)CCCC(C)C1CCC2C3CCC45CC4C(=O)CCC5(C)C3CCC12C (stereo not given)
inactive: endpoint: mean survival time, dose: 100.0 mg/kg/injection, schedule: Q04DX003 (ip), vehicle: acetone 102 % of control | [1] 91 % of control | endpoint: mean survival time, dose: 200.0 mg/kg/injection, schedule: Q04DX003 (ip), vehicle: acetone 93 % of control | [2] 93 % of control | endpoint: mean survival time, dose: 400.0 mg/kg/injection, schedule: Q04DX003 (ip), vehicle: acetone 89 % of control | [3] 95 % of control

COc1ccccc1C1=CCCCCC1
inactive: [4] 107 % of control | [5] 107 % of control

CONc1ccn(C2OC(CO)C(O)C2O)c(=O)n1 (stereo not given)
inactive: endpoint: mean survival time, dose: 12.5 mg/kg/injection, schedule: Q01DX009 (ip), vehicle: saline 108 % of control | endpoint: mean survival time, dose: 25.0 mg/kg/injection, schedule: Q01DX009 (ip), vehicle: saline 108 % of control | endpoint: mean survival time, dose: 50.0 mg/kg/injection, schedule: Q01DX009 (ip), vehicle: saline 117 % of control | [10] 121 % of control | [11] 120 % of control | [12] 97 % of control | endpoint: median survival time, dose: 12.5 mg/kg/injection, schedule: Q01DX009 (ip), vehicle: saline 101 % of control | endpoint: median survival time, dose: 25.0 mg/kg/injection, schedule: Q01DX009 (ip), vehicle: saline 108 % of control | endpoint: median survival time, dose: 50.0 mg/kg/injection, schedule: Q01DX009 (ip), vehicle: saline 108 % of control | endpoint: median survival time, dose: 100.0 mg/kg/injection, schedule: Q01DX009 (ip), vehicle: saline 111 % of control | endpoint: median survival time, dose: 200.0 mg/kg/injection, schedule: Q01DX009 (ip), vehicle: saline 112 % of control | endpoint: median survival time, dose: 400.0 mg/kg/injection, schedule: Q01DX009 (ip), vehicle: saline 120 % of control

O=C1/C(=C/c2ccccc2[N+](=O)[O-])Cc2ccccc21
inactive: endpoint: mean survival time, dose: 100.0 mg/kg/injection, schedule: Q04DX003 (ip), vehicle: Klucel (hydroxypropylcellulose) (HPC) 100 % of control | endpoint: mean survival time, dose: 200.0 mg/kg/injection, schedule: Q04DX003 (ip), vehicle: Klucel (hydroxypropylcellulose) (HPC) 100 % of control | endpoint: mean survival time, dose: 400.0 mg/kg/injection, schedule: Q04DX003 (ip), vehicle: Klucel (hydroxypropylcellulose) (HPC) 103 % of control

COC1CCC(/C(C#N)=C/C2CCC(OC)C(OC)C2)CC1 (stereo not given)
inactive: [7] 94 % of control | [8] 94 % of control | endpoint: mean survival time, dose: 400.0 mg/kg/injection, schedule: Q04DX002 (ip), vehicle: saline with Tween-80 94 % of control

CCCOc1cc[n+]([O-])c2ccccc12
inactive: [7] 94 % of control | [8] 94 % of control

O=[N+]([O-])c1cccc(N=NN2CCCC2)c1
inactive: [4] 101 % of control | [5] 92 % of control | [6] 87 % of control

O=C1C=CC(=O)N1c1ccc(F)cc1 (tested in a mixture with another compound)
inactive: [9] 96 % of control | [4] 91 % of control | [5] 86 % of control

O=C1OC(=O)C2C3C=CC(C3)C12 (stereo not given)
inactive: endpoint: mean survival time, dose: 12.5 mg/kg/injection, schedule: Q04DX003 (ip), vehicle: saline with Tween-80 95 % of control | endpoint: mean survival time, dose: 25.0 mg/kg/injection, schedule: Q04DX003 (ip), vehicle: saline with Tween-80 101 % of control | endpoint: mean survival time, dose: 50.0 mg/kg/injection, schedule: Q04DX003 (ip), vehicle: saline with Tween-80 95 % of control | endpoint: mean survival time, dose: 100.0 mg/kg/injection, schedule: Q01DX001 (ip), vehicle: saline with Tween-80 98 % of control | [10] 102 % of control | [1] 101 % of control | endpoint: mean survival time, dose: 200.0 mg/kg/injection, schedule: Q01DX001 (ip), vehicle: saline with Tween-80 100 % of control | [11] 96 % of control | [2] 102 % of control | endpoint: mean survival time, dose: 400.0 mg/kg/injection, schedule: Q01DX001 (ip), vehicle: saline with Tween-80 93 % of control | [12] 90 % of control | [3] 102 % of control

O=C(c1ccccc1)C1OC1c1ccccc1 (stereo not given)
inactive: [4] 93 % of control | [1] 101 % of control | [5] 94 % of control | [2] 98 % of control | [6] 94 % of control | [3] 101 % of control
